According to patent US7273863B1, “Benzophenones as inhibitors of reverse transcriptase” (SmithKline Beecham Corporation, priority 1999, dated 2007):

Columns and labels:
WTRVA = test: HeLa cell assay (HIV-LTR β-galactosidase reporter); assay type: cell-based, HIV-1; conditions: Human immunodeficiency virus 1, Virus Type WTRVA, read-out: IC50 (nM) Range
Protocol: (§1) The HeLa cell assay was performed according to a modification of Kimpton J. and Emerman M., Detection of replication-competent and pseudotyped human immunodeficiency virus with a sensitive cell line on the basis of activation of an integrated β-galactosidase gene, J. Virol. 66:2232-2239 (1992), in which HIV-1 infection is detected by the activation of an HIV-LTR driven β-galactosidase reporter that is integrated into the genome of a CD4^+ HeLa cell line. Quantitation of β-galactosidase is achieved by measuring the activation of a chemiluminescent substrate (Tropix). The concentration of each compound required to inhibit 50% (IC50) of the HIV-1 induced β-galactosidase signal, relative to untreated controls, was determined for each isogenic, recombinant virus.
(§2) HeLa-CD4-LTR-β-gal cells were obtained from the NIH AIDS Research and Reference Reagent Program. Cells were propagated in DMEM containing 10% fetal bovine serum, 0.2 mg/ml geneticin and 0.1 mg/ml hygromycin B. Cells were routinely split by trypsinization when confluency reached 80% (approximately every 2 to 3 days).
(§3) DNA encoding the HIV-1 reverse transcriptase was subcloned from a M13 phage into a general shuttle vector, pBCSK+, as a ˜1.65 kbp EcoRI/HindIII ended DNA fragment. The HIV DNA insert of the resulting plasmid, pRT2, was completely sequenced on both strands prior to use in site directed mutagenesis experiments. Specific amino acid replacements were made using Stratagene Quick Change reagents and mutagenic oligonucleotides from Oligos. Following mutagenesis, the entire mutant RT coding sequence was verified by sequencing both DNA strands.
(§4) Mutant HIV-1 strains were isolated by a modified Recombinant Virus Assay (Kellam P. and Larder B., Recombinant virus assay: a rapid, phenotypic assay for assessment of drug susceptibility of human immunodeficiency virus type 1 isolates, Antimicrobial Agents and Chemotherapy, 38:23-30, 1994). 1×10^7 Jurkat T-cells (maintained in RPMI containing 10% fetal bovine serum, split 1:5 every 5 to 6 days) were co-transfected with EcoRI/HindIII digested mutant RT plasmid and Bst EII-digested HIV-1HXB2ΔRT DNA in the presence of DMRIE-C transfection reagent (Gibco) according to supplier's recommended protocol. Each mutant RT coding sequence was crossed into the RT-deleted HIV-1 viral DNA backbone by in vivo homologous recombination. Transfected cell cultures were expanded and monitored until syncitia formation and CPE were extensive. Virus was harvested by clear spin of the culture supernatants and frozen at −80 C as primary stock. Recombinant progeny virus was sequenced in the RT region to confirm the mutant genotype. Virus stocks were further expanded by infection of Jurkat cells, harvested and stored as frozen aliquots. Stocks were titered in HeLa MAGI cells for assay.
(§5) The HIV-1HXB2 mutants were titered in the HeLa MAGI assay system to determine the relative light units (RLU) per ml, a measure of infectivity relevant for this assay system. Virus stocks were diluted in a 2-fold series into DMEM containing 10% fetal bovine serum plus 20 ug/ml DEAE-dextran and assayed as described in the Experimental Protocol section, below.
(§6) 96-well microtiter plate(s) (Costar #3598) were seeded with 3×10^3 HeLa-CD4-LTR-β-gal in 100 μl DMEM containing 10% fetal bovine serum. Plates were placed in a 37° C., 5% CO2 humidified incubator overnight. The following day, mutant virus stocks were thawed in a room temperature water bath and diluted into DMEM containing 10% fetal bovine serum and 20 μg/ml DEAE-dextran to achieve an input of 1500 to 2000 RLU/ml. All media was removed with an 8 channel manifold aspirator and 35 μl (50 to 70 total RLUs) of diluted virus was added to each well for virus adsorption. Plates were placed in a 37° C., 5% CO2 humidified incubator for 1.5 to 2 hours.
(§7) Compound titration plates were prepared at 1.35× final concentration during the virus adsorption period. […]

NEV-R = test: MT4 cell assay, antiviral HIV activity (propidium iodide); assay type: cell-based; conditions: Human immunodeficiency virus 1, MT4, read-out: IC50 (nM) Range
[1] = tested on: isogenic HIV-1 RT mutant virus Y181C; test: HeLa cell assay (HIV-LTR β-galactosidase reporter); assay type: cell-based; conditions: Human immunodeficiency virus 1, HeLa, read-out: IC50 (nM) Range
Protocol: as §1, §2, §3, §4, §5, §6, §7

[2] = tested on: isogenic HIV-1 RT mutant virus V108I/Y181C; test: HeLa cell assay (HIV-LTR β-galactosidase reporter); assay type: cell-based; conditions: Human immunodeficiency virus 1, HeLa, read-out: IC50 (nM) Range
Protocol: as §1, §2, §3, §4, §5, §6, §7

[3] = tested on: isogenic HIV-1 RT mutant virus K103N/G190A; test: HeLa cell assay (HIV-LTR β-galactosidase reporter); assay type: cell-based; conditions: Human immunodeficiency virus 1, HeLa, read-out: IC50 (nM) Range
Protocol: as §1, §2, §3, §4, §5, §6, §7

[4] = tested on: isogenic HIV-1 RT mutant virus K103N; test: HeLa cell assay (HIV-LTR β-galactosidase reporter); assay type: cell-based; conditions: Human immunodeficiency virus 1, HeLa, read-out: IC50 (nM) Range
Protocol: as §1, §2, §3, §4, §5, §6, §7

[5] = tested on: isogenic HIV-1 RT mutant virus P236L; test: HeLa cell assay (HIV-LTR β-galactosidase reporter); assay type: cell-based; conditions: Human immunodeficiency virus 1, HeLa, read-out: IC50 (nM) Range
Protocol: as §1, §2, §3, §4, §5, §6, §7

[6] = tested on: isogenic HIV-1 RT mutant virus K103N/P225H; test: HeLa cell assay (HIV-LTR β-galactosidase reporter); assay type: cell-based; conditions: Human immunodeficiency virus 1, HeLa, read-out: IC50 (nM) Range
Protocol: as §1, §2, §3, §4, §5, §6, §7

[7] = tested on: isogenic HIV-1 RT mutant virus K103N/Y181C; test: HeLa cell assay (HIV-LTR β-galactosidase reporter); assay type: cell-based; conditions: Human immunodeficiency virus 1, HeLa, read-out: IC50 (nM) Range
Protocol: as §1, §2, §3, §4, §5, §6, §7

[8] = tested on: isogenic HIV-1 RT mutant virus V108I; test: HeLa cell assay (HIV-LTR β-galactosidase reporter); assay type: cell-based; conditions: Human immunodeficiency virus 1, HeLa, read-out: IC50 (nM) Range
Protocol: as §1, §2, §3, §4, §5, §6, §7

[9] = tested on: isogenic HIV-1 RT mutant virus V106A/Y181C; test: HeLa cell assay (HIV-LTR β-galactosidase reporter); assay type: cell-based; conditions: Human immunodeficiency virus 1, HeLa, read-out: IC50 (nM) Range
Protocol: as §1, §2, §3, §4, §5, §6, §7

[10] = tested on: isogenic HIV-1 RT mutant virus K103N/V108I; test: HeLa cell assay (HIV-LTR β-galactosidase reporter); assay type: cell-based; conditions: Human immunodeficiency virus 1, HeLa, read-out: IC50 (nM) Range
Protocol: as §1, §2, §3, §4, §5, §6, §7

[11] = tested on: isogenic HIV-1 RT mutant virus V106I/Y181C; test: HeLa cell assay (HIV-LTR β-galactosidase reporter); assay type: cell-based; conditions: Human immunodeficiency virus 1, HeLa, read-out: IC50 (nM) Range
Protocol: as §1, §2, §3, §4, §5, §6, §7

[12] = tested on: isogenic HIV-1 RT mutant virus P225H; test: HeLa cell assay (HIV-LTR β-galactosidase reporter); assay type: cell-based; conditions: Human immunodeficiency virus 1, HeLa, read-out: IC50 (nM) Range
Protocol: as §1, §2, §3, §4, §5, §6, §7

[13] = tested on: isogenic HIV-1 RT mutant virus G190A; test: HeLa cell assay (HIV-LTR β-galactosidase reporter); assay type: cell-based; conditions: Human immunodeficiency virus 1, HeLa, read-out: IC50 (nM) Range
Protocol: as §1, §2, §3, §4, §5, §6, §7

[14] = tested on: isogenic HIV-1 RT mutant virus V106I; test: HeLa cell assay (HIV-LTR β-galactosidase reporter); assay type: cell-based; conditions: Human immunodeficiency virus 1, HeLa, read-out: IC50 (nM) Range
Protocol: as §1, §2, §3, §4, §5, §6, §7

[15] = tested on: isogenic HIV-1 RT mutant virus L100I; test: HeLa cell assay (HIV-LTR β-galactosidase reporter); assay type: cell-based; conditions: Human immunodeficiency virus 1, HeLa, read-out: IC50 (nM) Range
Protocol: as §1, §2, §3, §4, §5, §6, §7

Compound	IC50 (WTRVA)	IC50 (NEV-R)	IC50 [1]	IC50 [2]	IC50 [3]	IC50 [4]	IC50 [5]	IC50 [6]	IC50 [7]	IC50 [8]	IC50 [9]	IC50 [10]	IC50 [11]	IC50 [12]	IC50 [13]	IC50 [14]	IC50 [15]
Cc1cc(C#N)cc(C(=O)c2cc(Cl)ccc2OCC(=O)Nc2ccc(S(N)(=O)=O)nc2C)c1 [Compound 503]	< 10 nM	< 10 nM	< 10 nM	< 10 nM	< 10 nM	< 10 nM	< 10 nM	< 10 nM	< 10 nM	< 10 nM	< 10 nM	< 10 nM	< 10 nM	< 10 nM	< 10 nM	< 10 nM	< 10 nM
Cc1cc(S(N)(=O)=O)ccc1NC(=O)COc1ccc(Cl)cc1C(=O)c1cccc(C#N)n1 [Compound 637]	< 10 nM	< 10 nM	< 10 nM	< 10 nM	< 10 nM	< 10 nM	< 10 nM	< 10 nM	< 10 nM		< 10 nM	< 10 nM	< 10 nM	< 10 nM	< 10 nM	< 10 nM	< 10 nM
Cc1cc(S(N)(=O)=O)ccc1NC(=O)COc1ccc(Cl)cc1C(=O)c1cc(Cl)cc(C#N)c1 [Compound 475]	< 10 nM	< 10 nM	< 10 nM	< 10 nM	< 10 nM	< 10 nM	< 10 nM	< 10 nM	< 10 nM	< 10 nM	< 10 nM	< 10 nM	11 to 100 nM	< 10 nM	< 10 nM	< 10 nM	< 10 nM
Cc1cc(S(N)(=O)=O)ccc1NC(=O)COc1ccc(Cl)cc1C(=O)c1cccc(C#N)c1 [Compound 448]		< 10 nM	< 10 nM	< 10 nM	11 to 100 nM	< 10 nM	11 to 100 nM	< 10 nM	11 to 100 nM	< 10 nM	11 to 100 nM	< 10 nM	11 to 100 nM	< 10 nM	< 10 nM	< 10 nM	< 10 nM
Cc1cc(S(N)(=O)=O)ccc1NC(=O)COc1ccc(Cl)cc1C(=O)c1cc(F)cc(C(F)(F)F)c1 [Compound 78]	< 10 nM	< 10 nM	< 10 nM	11 to 100 nM	11 to 100 nM	< 10 nM	< 10 nM	< 10 nM	< 10 nM	< 10 nM	11 to 100 nM	< 10 nM		< 10 nM	< 10 nM		< 10 nM
Cc1cc(C#N)cc(C(=O)c2cc(Cl)ccc2OCC(=O)Nc2ccc(S(N)(=O)=O)cc2C)c1 [Compound 564]	< 10 nM	< 10 nM	< 10 nM	< 10 nM	< 10 nM	< 10 nM	< 10 nM	< 10 nM	< 10 nM		< 10 nM	< 10 nM	< 10 nM	< 10 nM	< 10 nM	< 10 nM	< 10 nM
Cc1cc(C)cc(C(=O)c2cc(Cl)ccc2OCC(=O)Nc2ccc(S(N)(=O)=O)cc2C)c1 [Compound 478]	< 10 nM	< 10 nM	< 10 nM	< 10 nM	< 10 nM	< 10 nM	< 10 nM	< 10 nM	< 10 nM	< 10 nM	< 10 nM	< 10 nM	< 10 nM	< 10 nM	< 10 nM	< 10 nM	< 10 nM
Cc1cc2cn[nH]c2cc1NC(=O)COc1ccc(Cl)cc1C(=O)c1cccc(C#N)c1 [Compound 453]	< 10 nM	< 10 nM	< 10 nM	< 10 nM	11 to 100 nM	< 10 nM	11 to 100 nM	< 10 nM	< 10 nM	101 to 1000 nM	11 to 100 nM	< 10 nM	11 to 100 nM	< 10 nM	< 10 nM	< 10 nM	< 10 nM
Cc1cc2nc[nH]c2cc1NC(=O)COc1ccc(Cl)cc1C(=O)c1cc(F)cc(C(F)(F)F)c1 [Compound 239]	< 10 nM	< 10 nM	< 10 nM	< 10 nM	11 to 100 nM	< 10 nM	< 10 nM	< 10 nM	11 to 100 nM	< 10 nM	101 to 1000 nM	< 10 nM	< 10 nM	< 10 nM	< 10 nM	< 10 nM	< 10 nM
Cc1cc(S(N)(=O)=O)ccc1NC(=O)COc1ccc(Cl)cc1C(=O)c1cc(F)cc(C#N)c1 [Compound 491]	< 10 nM	< 10 nM	< 10 nM	< 10 nM	11 to 100 nM	< 10 nM	< 10 nM	< 10 nM	< 10 nM	< 10 nM	< 10 nM	< 10 nM	11 to 100 nM	< 10 nM	< 10 nM	< 10 nM	< 10 nM
Cc1cc(OCCCS(N)(=O)=O)ccc1NC(=O)COc1ccc(Cl)cc1C(=O)c1cc(F)cc(C(F)(F)F)c1 [Compound 257]	< 10 nM	< 10 nM	< 10 nM	< 10 nM	11 to 100 nM	< 10 nM	< 10 nM	< 10 nM	< 10 nM	< 10 nM	11 to 100 nM	< 10 nM	11 to 100 nM	< 10 nM	< 10 nM	< 10 nM	< 10 nM
